Reference: article PMC7376644 (Pharmacology Research & Perspectives, 2020)
Values joined by “and” are separate entries in the source; they are usually repeats but may differ in a detail not shown here. Equal values may be shown once.

What was measured:
[1] = test system: CYP2D6; experiment: CYP selective diagnostic inhibition studies in HLM, quinidine; type: in vitro ADME, human; details: quinidine 10 µmol/L
Method: Reactions were carried out in triplicate in 96 well plates. Each reaction was measured at 2 time points, that is at 0 and 30 minutes. […] Furafylline, KTZ, ticlopidine, and quinidine were used as diagnostic inhibitors for CYP 1A2, 3A4/5, 2C19 and 2D6, respectively. The reactions were initiated by addition of NADPH after a pre‐incubation of 5 minutes at 37°C. All reactions were terminated by the addition of 150 µL ice‐cold ACN. Internal standard (0.2 µmol/L DPZ) was added to ACN prior to termination of the assay. This was followed by centrifugation at 4500 g for 20 minutes. An aliquot (50 µL) supernatant was collected and 5 µL was injected and analyzed by liquid chromatography/tandem mass spectrometry (LC/MS/MS). The percent effect of each inhibitor was the estimated contribution of the inhibited CYP calculated using the relationship below: %contribution=amount remaining with inhibitor‐amount remaining without inhibitor/amount remaining without inhibitor×100.

[2] = test system: HLM; experiment: Enzyme kinetics of hydroxylated metabolites formation; type: in vitro ADME, human
Method: The reactions were carried out in duplicate at each time point. Incubation conditions used for the determination of K M and V max were optimized for linearity with respect to time and protein concentrations. […] Metabolites were analyzed by LC‐MS/MS as described below. The K M and V max values of each marker substrate were determined using nonlinear least squares regression analysis in GraFit software (version 3.0, Erithacus Software Limited) and SigmaPlot Enzyme Kinetics Module for Windows 7.0 (SPSS, Inc). […]

[3] = cited from earlier work
[4] = molecular target: T1, CYP1A2 (Homo sapiens, UniProt P05177); experiment: in vitro; details: recombinant CYP1A2, pH 7.4
T1 sequence (P05177 1-516): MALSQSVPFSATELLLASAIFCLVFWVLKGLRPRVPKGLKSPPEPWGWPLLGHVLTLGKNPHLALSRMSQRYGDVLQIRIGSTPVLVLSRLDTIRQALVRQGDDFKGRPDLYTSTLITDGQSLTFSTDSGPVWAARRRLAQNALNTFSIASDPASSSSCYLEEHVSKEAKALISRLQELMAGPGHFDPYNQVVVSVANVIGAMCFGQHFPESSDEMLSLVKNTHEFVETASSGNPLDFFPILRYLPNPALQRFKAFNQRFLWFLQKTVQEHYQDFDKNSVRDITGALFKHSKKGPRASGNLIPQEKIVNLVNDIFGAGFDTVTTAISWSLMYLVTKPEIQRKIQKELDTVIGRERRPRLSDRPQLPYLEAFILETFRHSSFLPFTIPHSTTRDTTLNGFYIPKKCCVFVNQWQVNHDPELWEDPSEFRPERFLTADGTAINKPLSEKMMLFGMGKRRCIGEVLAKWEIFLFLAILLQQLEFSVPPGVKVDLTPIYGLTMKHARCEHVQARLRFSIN

[5] = molecular target: T2, CYP2C19 (Homo sapiens, UniProt P33261); experiment: in vitro; details: recombinant CYP2C19, pH 7.4
[6] = molecular target: T3, CYP2D6 (Homo sapiens, UniProt P10635); experiment: in vitro; details: recombinant CYP2D6, pH 7.4
[7] = molecular target: T1, CYP1A2; experiment: Intrinsic clearance, substrate depletion approach; details: for Predicted CLH / Predicted CLuH,int: rCYP1A2, substrate depletion
[8] = molecular target: T3, CYP2D6; experiment: Intrinsic clearance, substrate depletion approach; details: rCYP2D6, substrate depletion
[9] = molecular target: T2, CYP2C19; experiment: Qualitative substrate disappearance assay; type: in vitro ADME; parameters: purchased CYPEX CYP008; host or cells: Escherichia coli; details: 20 pmols rCYP, 1.0 µmol/L substrate, 30 minutes
Method: All reactions were performed in triplicate in 96‐well plates. […] The substrate was diluted to 40% ACN so that the percent organic component in the final solution was maintained at 1%. […] The reactions were initiated by addition of NADPH after a pre‐incubation of 5 minutes at 37°C. All reactions were terminated by the addition of 150 µL of ice‐cold ACN at either 0 minute (control) or 30 minutes (reaction). This was followed by centrifugation at 4500 g for 20 minutes. An aliquot (50 µL) supernatant was collected and 5 µL was injected and analyzed by liquid chromatography/tandem mass spectrometry (LC/MS/MS). Metabolism was signified qualitatively by loss of substrate from the media using the relationship: %remaining compound=[…]Peak area atT30min/Peak area atT0min×100.

[10] = molecular target: T1, CYP1A2; experiment: Enzyme kinetics of hydroxylated metabolites formation; type: in vitro ADME; parameters: purchased CYPEX CYP001; host or cells: Escherichia coli; details: CYP1A2, formation of cis‐4‐OH‐PZQ
Method: The reactions were carried out in duplicate at each time point. Incubation conditions used for the determination of K M and V max were optimized for linearity with respect to time and protein concentrations. […] Metabolites were analyzed by LC‐MS/MS as described below. The K M and V max values of each marker substrate were determined using nonlinear least squares regression analysis in GraFit software (version 3.0, Erithacus Software Limited) and SigmaPlot Enzyme Kinetics Module for Windows 7.0 (SPSS, Inc).
The well‐stirred model was used to estimate the hepatic clearance (CLH) due to metabolism.

T3 sequence (P10635 whole entry): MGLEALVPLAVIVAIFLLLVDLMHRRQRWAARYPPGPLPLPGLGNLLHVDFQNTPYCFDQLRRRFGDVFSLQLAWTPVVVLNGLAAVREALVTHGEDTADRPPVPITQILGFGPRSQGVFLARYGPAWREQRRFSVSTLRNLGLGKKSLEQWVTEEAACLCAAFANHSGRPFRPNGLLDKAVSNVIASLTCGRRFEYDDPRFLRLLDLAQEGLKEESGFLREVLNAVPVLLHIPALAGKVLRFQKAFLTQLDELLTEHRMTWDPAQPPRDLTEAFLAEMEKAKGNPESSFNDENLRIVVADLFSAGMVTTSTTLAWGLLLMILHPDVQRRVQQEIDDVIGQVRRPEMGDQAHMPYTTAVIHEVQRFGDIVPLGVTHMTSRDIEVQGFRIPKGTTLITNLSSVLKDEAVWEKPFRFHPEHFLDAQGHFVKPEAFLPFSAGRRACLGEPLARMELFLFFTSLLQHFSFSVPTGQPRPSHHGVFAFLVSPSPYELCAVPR
T2 sequence (P33261 whole entry): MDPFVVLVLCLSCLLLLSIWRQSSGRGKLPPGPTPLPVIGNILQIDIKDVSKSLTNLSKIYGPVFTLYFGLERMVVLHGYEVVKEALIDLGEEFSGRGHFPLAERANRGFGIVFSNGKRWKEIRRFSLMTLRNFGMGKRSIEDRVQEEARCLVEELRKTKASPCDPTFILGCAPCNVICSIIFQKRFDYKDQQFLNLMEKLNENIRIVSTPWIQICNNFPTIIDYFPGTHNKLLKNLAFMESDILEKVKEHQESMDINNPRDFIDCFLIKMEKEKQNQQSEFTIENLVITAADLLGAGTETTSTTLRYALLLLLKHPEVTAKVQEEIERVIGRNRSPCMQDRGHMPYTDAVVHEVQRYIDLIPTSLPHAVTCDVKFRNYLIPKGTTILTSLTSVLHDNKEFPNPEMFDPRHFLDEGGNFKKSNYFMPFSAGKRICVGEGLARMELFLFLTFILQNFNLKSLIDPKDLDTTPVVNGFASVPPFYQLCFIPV

Q: What does the source list for `O=C(C1CCCCC1)N1CC(=O)N2CCc3ccccc3[C@@H]2C1` [R‐PZQ, R‐Praziquantel]?
A: Contribution of CYP2D6 [1]: 51%; K M [SD] ([2]; formation of X‐OH‐PZQ): 29.30 [4.020] µmol/L; V max [SD] ([2]; formation of X‐OH‐PZQ): 1.2 nmol/min/mg protein and 1.200 [0.06266] nmol/min/mg protein; K M [SD] ([2]; formation of cis‐4‐OH‐PZQ): 38.90 [5.469] µmol/L; V max [SD] ([2]; formation of cis‐4‐OH‐PZQ): 0.7572 [0.0447] nmol/min/mg protein; Fraction unbound in plasma (fu) [3]: 0.2; half-life at 1 µmol/L [4]: 7.54 min; half-life at 1 µmol/L [5]: 3.6 min; half-life at 1 µmol/L [6]: 34.7 min; Predicted CLH [7]: 5.071 mL/min/kg; Predicted CLuH,int [7]: 27.80 mL/min/kg; Clearance class, CYP1A2‐mediated ([7]; substrate depletion): high; Clearance by CYP1A2, R‐PZQ compared to S‐PZQ ([7]; substrate depletion, times faster): 2 times; Predicted CLH [8]: 0.2132 mL/min/kg; Predicted CLuH,int [8]: 0.860 mL/min/kg; Depletion of substrate by CYP2C19 [9]: complete depletion; CLuH,int [10]: 7.55 mL/min/kg and 7.550 mL/min/kg

Q: For `O=C(C1CCCCC1)N1CC(=O)N2CCc3ccccc3[C@H]2C1` [S‐PZQ, S‐Praziquantel], which “Contribution of CYP2D6” value [1] is on record?
A: The value was 54%.

Q: And the “K M [SD]” value ([2]; formation of X‐OH‐PZQ)?
A: The value was 61.00 [22.12] µmol/L.

Q: And the “V max [SD]” value ([2]; formation of X‐OH‐PZQ)?
A: The value was 6.3 nmol/min/mg protein and 6.300 [1.102] nmol/min/mg protein.

Q: And the “K M [SD]” value ([2]; formation of cis‐4‐OH‐PZQ)?
A: Its value is 44.30 [12.06] µmol/L.

Q: And the “V max [SD]” value ([2]; formation of cis‐4‐OH‐PZQ)?
A: Its value is 0.2700 [0.02999] nmol/min/mg protein.

Q: And the “Fraction unbound in plasma (fu)” value [3]?
A: The value was 0.2.

Q: And the half-life at 1 µmol/L [4]?
A: The half-life at 1 µmol/L was 16 min.

Q: And the half-life at 1 µmol/L [5]?
A: Its half-life at 1 µmol/L is 4.13 min.

Q: What about the half-life at 1 µmol/L [6] of the same compound?
A: Its half-life at 1 µmol/L is 45.3 min.

Q: What about the “Predicted CLH” value [7] of the same compound?
A: The value was 2.877 mL/min/kg.

Q: What about the “Predicted CLuH,int” value [7] of the same compound?
A: The value was 13.07 mL/min/kg.

Q: And the “Predicted CLH” value [8]?
A: Its value is 0.1712 mL/min/kg.

Q: And the “Predicted CLuH,int” value [8]?
A: Its value is 0.660 mL/min/kg.

Q: What about the “Depletion of substrate by CYP2C19” value [9] of the same compound?
A: The value was “complete depletion”.

Q: What about the “CLuH,int” value [10] of the same compound?
A: Its value is 0.83 mL/min/kg and 0.8300 mL/min/kg.
